# Data taken from US20250108038A1 (priority 2023, published 2025).
# Values joined by “and” are separate entries in the source; they are usually repeats but may differ in a detail not shown here. Equal entries are not always repeated.
# Tested on: Long Evans rats
# Experiment: Behavioral satiety sequence (BSS)
# Assay type: in vivo, Long Evans rat
# Excerpt: The Behavioural Satiety Sequence (BSS) is a technique used to evaluate physiological satiety. It is based on the expression of a sequence of behaviors including eating, grooming, locomotor activity, followed by resting, which are typically observed in rodents post-ingestion (Halford et al, 1998, Pharmacology Biochemistry and Behaviour. 61(2): 159-168). The BSS is a widely used model for determining the effects of novel pharmaceuticals on food intake and measures of satiety in rodents (Oliveira et al, 2011, Revista de Nutrição. 24(4) 619-628), and to discriminate the cause of reduced food intake following pharmacological manipulation. For example, treatments that may reduce food intake by non-specific mechanisms, such as immobility, malaise, and taste adulteration, will disrupt this sequence (Halford et al, 1998, Pharmacology Biochemistry and Behaviour. 61(2): 159-168).
# Specifically, 12 male Long-Evans rats were food-deprived for 22 h with a 2 h feeding period each day. Rats were trained to consume daily food during the 2 h period over 25 days. The testing phase was initiated once the rats consistently consumed 16-18 g of food per day with ≤10% variance in amount of feed consumed. Feeding took place in designated individual boxes in a quiet room separate from the housing room. Continuous remote monitoring via video camera during feeding was used to assess the BSS. Food consumption was measured by weighing the total available food before and after the 2 h feeding window, correcting for spillage. Lorcaserin (1 mg/kg) was included as a reference control (Higgins et al, 2011, Neuropsychopharmacology. 37(5): 1177-1191). Subjects were tested using a repeated-measures, Latin square design with 2-3 days wash-out between treatment cycles.
# On scheduled test days, animals were monitored remotely via video camera during the feeding access period. The occurrence of four mutually exclusive behaviors (eating/drinking, grooming, active, rest) were individually scored. Over the 2 h feeding period, behaviors were assessed every 30 seconds. Scores were compiled into 23 5 min timebins (timebin 24 was removed due to early removal of animals) and the frequency of each behavior within each timebin was calculated to determine a temporal frequency of each measure (Rodgers et al, 2010, Pharmacology Biochemistry and Behaviour. 97: 3-14). Percentage time was plotted for each behavioral sequence in each timebin to compare between treatment groups (Higgins et al, 2011, Neuropsychopharmacology. 37(5): 1177-1191).
# [1] = 3 mg/kg, raw data per animal (LT-1 to LT-12)
# [2] = Compound I-19 0.1 mg/kg, AVG of animals LT-1 to LT-12
# [3] = Compound I-19 0.1 mg/kg, AVG of animals LT-1 to LT-12, 0-0.5 hours
structure (smiles),measurement,setting,value
Clc1ccc(C2(OCC3OCCO3)c3ccccc3C3=NCCN32)cc1 (stereo not drawn) [Compound I-19],"BSS scoring E (eating/drinking), Time Bin 19 (90-95 TOTAL), AVG","3 mg/kg, AVG of LT-1 to LT-12",0.59
same,"BSS scoring E (eating/drinking), Time Bin 20 (95-100 TOTAL), AVG","3 mg/kg, AVG of LT-1 to LT-12",0.62
same,"BSS scoring E (eating/drinking), Time Bin 21 (100-105 TOTAL), AVG","3 mg/kg, AVG of LT-1 to LT-12",0.56
same,"BSS scoring E (eating/drinking), Time Bin 22 (105-110 TOTAL), AVG","3 mg/kg, AVG of LT-1 to LT-12",0.52
same,"BSS scoring E (eating/drinking), Time Bin 23 (110-115 TOTAL), AVG","3 mg/kg, AVG of LT-1 to LT-12",0.58
same,"BSS scoring E (eating/drinking), Time Bin 24 (115-120 TOTAL), AVG","3 mg/kg, AVG of LT-1 to LT-12",0.37
same,"BSS scoring G (grooming), Time Bin 19 (90-95 TOTAL), AVG","3 mg/kg, AVG of LT-1 to LT-12",0.05
same,"BSS scoring G (grooming), Time Bin 20 (95-100 TOTAL), AVG","3 mg/kg, AVG of LT-1 to LT-12",0.04
same,"BSS scoring G (grooming), Time Bin 21 (100-105 TOTAL), AVG","3 mg/kg, AVG of LT-1 to LT-12",0.06
same,"BSS scoring G (grooming), Time Bin 22 (105-110 TOTAL), AVG","3 mg/kg, AVG of LT-1 to LT-12",0.07
same,"BSS scoring G (grooming), Time Bin 23 (110-115 TOTAL), AVG","3 mg/kg, AVG of LT-1 to LT-12",0.02
same,"BSS scoring G (grooming), Time Bin 24 (115-120 TOTAL), AVG","3 mg/kg, AVG of LT-1 to LT-12",0.02
same,"BSS scoring R (resting), Time Bin 19 (90-95 TOTAL), AVG","3 mg/kg, AVG of LT-1 to LT-12",0.18
same,"BSS scoring R (resting), Time Bin 20 (95-100 TOTAL), AVG","3 mg/kg, AVG of LT-1 to LT-12",0.15
same,"BSS scoring R (resting), Time Bin 21 (100-105 TOTAL), AVG","3 mg/kg, AVG of LT-1 to LT-12",0.16
same,"BSS scoring R (resting), Time Bin 22 (105-110 TOTAL), AVG","3 mg/kg, AVG of LT-1 to LT-12",0.22
same,"BSS scoring R (resting), Time Bin 23 (110-115 TOTAL), AVG","3 mg/kg, AVG of LT-1 to LT-12",0.22
same,"BSS scoring R (resting), Time Bin 24 (115-120 TOTAL), AVG","3 mg/kg, AVG of LT-1 to LT-12",0.18
same,"BSS scoring A (active), Time Bin 19 (90-95 TOTAL)",[1],0 (3×) and 1 (2×) and 2 (5×) and 4 and 5
same,"BSS scoring A (active), Time Bin 20 (95-100 TOTAL)",[1],5 and 0 (5×) and 3 and 4 (3×) and 1 and 2
same,"BSS scoring A (active), Time Bin 21 (100-105 TOTAL)",[1],7 and 0 (6×) and 1 and 5 (3×) and 3
same,"BSS scoring A (active), Time Bin 22 (105-110 TOTAL)",[1],0 (5×) and 1 and 3 (2×) and 5 and 2 (2×) and 8
same,"BSS scoring A (active), Time Bin 23 (110-115 TOTAL)",[1],0 (6×) and 3 (2×) and 5 (2×) and 1 and 6
same,"BSS scoring A (active), Time Bin 24 (115-120 TOTAL)",[1],3 and 0 (3×) and 2 (3×) and 7 (2×) and 1 and 4 (2×)
same,"BSS scoring E (eating/drinking), Time Bin 19 (90-95 TOTAL)",[1],7 (2×) and 8 (2×) and 9 and 6 and 0 and 1 and 5 (3×) and 10
same,"BSS scoring E (eating/drinking), Time Bin 20 (95-100 TOTAL)",[1],4 (3×) and 10 and 5 and 8 (2×) and 9 (2×) and 0 and 7 and 6
same,"BSS scoring E (eating/drinking), Time Bin 21 (100-105 TOTAL)",[1],3 and 10 (2×) and 9 (3×) and 7 (2×) and 0 (2×) and 1 and 2
same,"BSS scoring E (eating/drinking), Time Bin 22 (105-110 TOTAL)",[1],8 and 5 and 7 (3×) and 9 (2×) and 0 (2×) and 3 (2×) and 4
same,"BSS scoring E (eating/drinking), Time Bin 23 (110-115 TOTAL)",[1],10 (3×) and 6 and 0 (2×) and 8 (2×) and 4 and 3 and 5 (2×)
same,"BSS scoring E (eating/drinking), Time Bin 24 (115-120 TOTAL)",[1],6 and 0 (3×) and 8 and 4 (2×) and 7 and 2 (2×) and 1 and 10
same,"BSS scoring G (grooming), Time Bin 19 (90-95 TOTAL)",[1],0 (8×) and 2 (2×) and 1 (2×)
same,"BSS scoring G (grooming), Time Bin 20 (95-100 TOTAL)",[1],0 (8×) and 1 (3×) and 2
same,"BSS scoring G (grooming), Time Bin 21 (100-105 TOTAL)",[1],0 (8×) and 1 and 2 (3×)
same,"BSS scoring G (grooming), Time Bin 22 (105-110 TOTAL)",[1],0 (8×) and 2 (2×) and 1 and 3
same,"BSS scoring G (grooming), Time Bin 23 (110-115 TOTAL)",[1],0 (10×) and 1 (2×)
same,"BSS scoring G (grooming), Time Bin 24 (115-120 TOTAL)",[1],0 (10×) and 1 (2×)
same,"BSS scoring R (resting), Time Bin 19 (90-95 TOTAL)",[1],3 and 0 (5×) and 2 and 1 (3×) and 8 and 6
same,"BSS scoring R (resting), Time Bin 20 (95-100 TOTAL)",[1],1 (4×) and 0 (4×) and 2 (3×) and 8
same,"BSS scoring R (resting), Time Bin 21 (100-105 TOTAL)",[1],0 (5×) and 3 (2×) and 6 and 1 (3×) and 4
same,"BSS scoring R (resting), Time Bin 22 (105-110 TOTAL)",[1],2 (3×) and 0 (2×) and 1 (5×) and 10 and 5
same,"BSS scoring R (resting), Time Bin 23 (110-115 TOTAL)",[1],0 (5×) and 10 and 1 (2×) and 5 (2×) and 2 (2×)
same,"BSS scoring R (resting), Time Bin 24 (115-120 TOTAL)",[1],1 (3×) and 0 (4×) and 2 (2×) and 4 (2×) and 7
same,"BSS scoring A (active), Time Bin 19 (90-95 TOTAL), AVG",[2],0.30
same,"BSS scoring A (active), Time Bin 20 (95-100 TOTAL), AVG",[2],0.13
same,"BSS scoring A (active), Time Bin 21 (100-105 TOTAL), AVG",[2],0.08
same,"BSS scoring A (active), Time Bin 22 (105-110 TOTAL), AVG",[2],0.13
same,"BSS scoring A (active), Time Bin 23 (110-115 TOTAL), AVG",[2],0.21
same,"BSS scoring A (active), Time Bin 24 (115-120 TOTAL), AVG",[2],0.16
same,"BSS scoring E (eating/drinking), Time Bin 19 (90-95 TOTAL), AVG",[2],0.52
same,"BSS scoring E (eating/drinking), Time Bin 20 (95-100 TOTAL), AVG",[2],0.68
same,"BSS scoring E (eating/drinking), Time Bin 21 (100-105 TOTAL), AVG",[2],0.73
same,"BSS scoring E (eating/drinking), Time Bin 22 (105-110 TOTAL), AVG",[2],0.68
same,"BSS scoring E (eating/drinking), Time Bin 23 (110-115 TOTAL), AVG",[2],0.64
same,"BSS scoring E (eating/drinking), Time Bin 24 (115-120 TOTAL), AVG",[2],0.52
same,"BSS scoring G (grooming), Time Bin 19 (90-95 TOTAL), AVG",[2],0.03
same,"BSS scoring G (grooming), Time Bin 20 (95-100 TOTAL), AVG",[2],0.05
same,"BSS scoring G (grooming), Time Bin 21 (100-105 TOTAL), AVG",[2],0.04
same,"BSS scoring G (grooming), Time Bin 22 (105-110 TOTAL), AVG",[2],0.04
same,"BSS scoring G (grooming), Time Bin 23 (110-115 TOTAL), AVG",[2],0.03
same,"BSS scoring G (grooming), Time Bin 24 (115-120 TOTAL), AVG",[2],0.03
same,"BSS scoring R (resting), Time Bin 19 (90-95 TOTAL), AVG",[2],0.15
same,"BSS scoring R (resting), Time Bin 20 (95-100 TOTAL), AVG",[2],0.14
same,"BSS scoring R (resting), Time Bin 21 (100-105 TOTAL), AVG",[2],0.15
same,"BSS scoring R (resting), Time Bin 22 (105-110 TOTAL), AVG",[2],0.15
same,"BSS scoring R (resting), Time Bin 23 (110-115 TOTAL), AVG",[2],0.12
same,"BSS scoring R (resting), Time Bin 24 (115-120 TOTAL), AVG",[2],0.13
same,"BSS scoring A (active), Time Bin 1 (0-5 TOTAL), AVG",[3],0.09
same,"BSS scoring A (active), Time Bin 2 (5-10 TOTAL), AVG",[3],0.04
same,"BSS scoring A (active), Time Bin 3 (10-15 TOTAL), AVG",[3],0.03
same,"BSS scoring A (active), Time Bin 4 (15-20 TOTAL), AVG",[3],0.09
same,"BSS scoring A (active), Time Bin 5 (20-25 TOTAL), AVG",[3],0.08
same,"BSS scoring A (active), Time Bin 6 (25-30 TOTAL), AVG",[3],0.13
same,"BSS scoring E (eating/drinking), Time Bin 1 (0-5 TOTAL), AVG",[3],0.89
same,"BSS scoring E (eating/drinking), Time Bin 2 (5-10 TOTAL), AVG",[3],0.96
same,"BSS scoring E (eating/drinking), Time Bin 3 (10-15 TOTAL), AVG",[3],0.95
